Earlier results on 2 molecules are cited in US20250334554A1, “ANALYTICAL METHOD FOR QUANTIFYING SUCRALOSE-6-ACETATE CONTENT” (Avazyme, Inc., priority 2024, published 2025).

Peptide text beside a SMILES is read from it.

The test system of data set [1] is humans. The settings on record: 2023, Riboli et al.
For data set [2] the following is noted: Schiffman et al. 2023.

As for `COC(=O)[C@H](Cc1ccccc1)NC(=O)[C@@H](N)CC(=O)O` [aspartame] (H-Asp-Phe-OMe), the IARC carcinogenicity classification entry in data set [1] is “possibly carcinogenic to humans (Group 2B)”.
With `CC(=O)OC[C@H]1O[C@H](O[C@]2(CCl)O[C@H](CCl)[C@@H](O)[C@@H]2O)[C@H](O)[C@@H](O)[C@H]1Cl` [sucralose-6-acetate], the “consumption level at which may be genotoxic” value in data set [2] is 0.15 µg/day.
